{
  "source": "patent US7714151B2",
  "about": "“Aminated isoflavonoid derivatives and uses thereof” (Novogen Research Pty Ltd, priority 2002, dated 2010)",
  "key": {"[1]": {"system": "MDA-MB-468 (ER negative breast Ca)", "test": "Cell cytotoxicity analysis (MTT), MDA-MB-468", "format": "cell-based", "conditions": "Homo sapiens, 120 h, MDA-MB-468, five days", "excerpt": "(§1) The method of Alley et al. (1988) was followed. Briefly, prior to cytotoxicity screening a growth curve was constructed for each tumour line to be screened to determine growth kinetics, optimal seeding density to yield logarithmic growth over five days, and the corresponding lag time. Spent culture medium was aspirated from a sub-confluent adherent monolayer culture (T-75), the cells trypsinised and resuspended in a minimal volume of culture medium. After counting cells, a 96-well plate was seeded at an appropriate density (100 μl) to yield optimal growth parameters and the plate was then incubated at 37° C. under 5% CO2. After the pre-determined lag-time the plate was treated with either vehicle (negative control) or serial dilutions of the test compound prepared in culture medium, and then incubated for a further five days. MTT (0.5 mg/ml) prepared in PBS was added to all wells and incubated at 37° C. for ˜3 hr. Spent medium was then carefully aspirated and DMSO (150 μt) was added to solubilise cells and the reduced formazan. Absorbance was then read on a SpectraMax plate reader at 570 nm and viable cells in treated plates were expressed as a percentage of cells in control plates."}, "[2]": {"system": "all cell lines tested", "test": "Cell cytotoxicity analysis (MTT), statements over the cell lines tested", "format": "cell-based, human", "conditions": "for overall cell killing activity against all cell lines tested: comparison of Cpd. 1, 2 and 3", "excerpt": "as §1"}, "[3]": {"system": "LNCaP (AR positive Prostate Ca)", "test": "Cell cytotoxicity analysis (MTT), LNCaP", "format": "cell-based", "conditions": "Homo sapiens", "excerpt": "as §1"}, "[4]": {"system": "NCI-H460 (large cell lung Ca)", "test": "Cell cytotoxicity analysis (MTT), NCI-H460", "format": "cell-based", "conditions": "Homo sapiens", "excerpt": "as §1"}, "[5]": {"system": "DU145 (AR negative prostate Ca)", "test": "Cell cytotoxicity analysis (MTT), DU145", "format": "cell-based", "conditions": "Homo sapiens", "excerpt": "as §1"}, "[6]": {"target": "T1, thromboxane synthase (Homo sapiens, UniProt P24557)", "T1 construct": "endogenous in cells; host or cells: human peripheral blood monocytes (elutriated from buffy coat), LPS-stimulated", "T1 sequence (P24557 1-533)": "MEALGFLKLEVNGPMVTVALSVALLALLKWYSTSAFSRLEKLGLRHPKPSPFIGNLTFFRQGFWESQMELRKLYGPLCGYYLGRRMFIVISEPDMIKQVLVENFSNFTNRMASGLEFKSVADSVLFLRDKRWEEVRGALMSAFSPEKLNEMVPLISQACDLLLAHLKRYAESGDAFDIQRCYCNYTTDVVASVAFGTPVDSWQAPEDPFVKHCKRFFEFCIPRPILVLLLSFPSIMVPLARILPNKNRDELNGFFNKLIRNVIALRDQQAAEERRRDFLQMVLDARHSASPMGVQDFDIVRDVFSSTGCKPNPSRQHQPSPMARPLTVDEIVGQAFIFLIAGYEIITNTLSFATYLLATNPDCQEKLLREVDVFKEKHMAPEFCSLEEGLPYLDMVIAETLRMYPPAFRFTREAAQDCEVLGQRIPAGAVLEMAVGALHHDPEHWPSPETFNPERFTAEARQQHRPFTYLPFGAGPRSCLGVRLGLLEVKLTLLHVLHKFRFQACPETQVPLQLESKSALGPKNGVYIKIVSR", "test": "Thromboxane synthase inhibition screening assay in LPS-stimulated monocytes (TXB2 radioimmunoassay)", "format": "cell-based", "method": "(§2) Human buffy coats were obtained from the Red Cross Blood Bank. Buffy coat (50 ml) was diluted 1:2 with sterile phosphate buffered saline (PBS), overlayed onto Lymphoprep density gradient medium and centrifuged at 800 g for 20 min. The mononuclear cell (MNC) layer was removed and washed with PBS and monocyte enriched cells were prepared from MNC by counter-current centrifugal elutriation. Monocytes were then resuspended in RPMI tissue culture medium with 10% foetal calf serum at 1.5×10^6 cells/ml. Test analogues were prepared in DMSO and incubated with monocytes at 37° for 30 min at either 10 or 100 μM. After the 30 min pre-incubation, bacterial lipopolysaccharide (LPS) was added (200 ng/ml) and cells were incubated for a further 18 h at 37° in 5% CO2. After centrifugation, cell-free supernatants were then removed and assayed for either prostaglandin or thromboxane production, as determined by radioimmunoassay. Because TXA2 is labile in aqueous medium, TXB2, the stable hydrolysis product of TXA2, was measured. For each dose (0, 10, 100 μM), incubations were performed in triplicate. Results are expressed as mean±SD, n=3. ANOVA followed by Newman-Keuls multiple comparisons test was used to examine differences between doses and the control values."}, "[7]": {"system": "PC3 (AR negative prostate Ca)", "test": "Cell cytotoxicity analysis (MTT), PC3", "format": "cell-based", "conditions": "Homo sapiens, 120 h, PC3, five days", "excerpt": "as §1"}, "[8]": {"system": "COX", "test": "COX inhibition screening assay in LPS-stimulated monocytes (prostaglandin radioimmunoassay)", "format": "cell-based", "conditions": "10 μM, human monocytes", "method": "as §2"}, "[9]": {"system": "testosterone-induced LNCaP proliferation", "test": "Androgen inhibition study: testosterone-induced LNCaP proliferation", "format": "cell-based, human", "conditions": "for IC50: Homo sapiens, LNCaP; for fold better than Cpd. 1 at inhibiting testosterone-induced proliferation: relative to Cpd. 1", "method": "The method of Negri-Cesi and Motta (1994) and Negri-Cesi et al. (1999) was followed. Briefly, LNCaP cells were cultured in RPMI supplemented with 10% fetal calf serum and 2 mM L-glutamine at 37° C. under 5% CO2. At day 0 a subconfluent LNCaP culture flask (80%) were harvested by trypsinisation, washed, resuspended in RPMI media completed with charcoal stripped fetal calf serum (RPMIi) and seeded into 12 well plates at 30,000 cells per well (15,000 cells/mL). The plates were cultured at 37° C. with 5% CO2 for 48 hours. On day 2, spent media was carefully aspirated from all plates and then replenished with 2 ml RPMIi containing either testosterone (0.5 pM) as positive control, testosterone plus finasteride (1 uM) as inhibitor control and vehicle as growth control (equivalent concentration of DMSO). Test plates were treated as described above; only serial dilutions of test compounds prepared in RPMIi were used. Concentrations of test compound were chosen based on their cytotoxicity profile as determined in the cell cytotoxicity analysis methods section above i.e. the top concentration used in the LNCaP proliferation assay was determined as the concentration at which cells first appear close to 100% viable along the cytotoxicity curve. This concentration was chosen to ensure that any inhibition of proliferation imparted by the test agent was due to the inhibition of 5′AR and not due to direct killing of the cells. It is important not to disturb cell monolayer during the addition of treatments. On days 5 and 8 the process followed on day 2 was repeated for all plates. On day 11 spent media was aspirated from all wells, cells were washed gently with PBS (500 μl), trypsinised and the cells in each well counted using a haemocytometer. The average cell count and standard deviation was calculated and the result expressed as the % inhibition of testosterone-induced proliferation in comparison with vehicle control."}, "[10]": {"conditions": "120 h, LNCaP, five days, MTT, read-out: Cytotoxicity LNCaP Avg."}, "[11]": {"conditions": "120 h, NCI-H460, five days, MTT, read-out: Cytotoxicity NCI-H460 Avg."}, "[12]": {"conditions": "120 h, DU-145, five days, MTT, read-out: Cytotoxicity DU-145 Avg."}, "[13]": {"conditions": "DU-145, read-out: IC50 against DU-145"}, "[14]": {"conditions": "read-out: IC50 inhibition of testosterone-induced LNCaP proliferation"}, "[15]": {"conditions": "read-out: IC50 inhibition of testosterone-induced proliferation"}},
  "note": "Read-outs that look alike come from different tables or passages of the source.",
  "data": [
    {"smiles": "Oc1ccc(C2COc3cc(O)ccc3C2=NNc2ccccc2)cc1", "note": "(stereo not shown) [Cpd. 1]", "values": [
      {"measurement": "IC50", "setting": "[1]", "value": 34.9, "unit": "µM"},
      {"measurement": "IC50", "setting": "[2]; Homo sapiens, cell lines other than LNCaP and DU-145, read-out: Modest activity against the other cell lines tested", "value": "> 20", "unit": "µM"},
      {"measurement": "IC50", "setting": "[3]; [10]", "value": 16.2, "unit": "µM"},
      {"measurement": "IC50", "setting": "[3]; read-out: IC50 against LNCaP", "value": 16.2, "unit": "µM"},
      {"measurement": "IC50", "setting": "[4]; [11]", "value": 27.6, "unit": "µM"},
      {"measurement": "IC50", "setting": "[5]; [12]", "value": 13.8, "unit": "µM"},
      {"measurement": "IC50", "setting": "[5]; [13]", "value": 13.8, "unit": "µM"},
      {"measurement": "inhibition at 10 µM", "setting": "[6]", "value": 33, "unit": "%"},
      {"measurement": "IC50", "setting": "[7]", "value": 33.9, "unit": "µM"},
      {"measurement": "inhibition of COX activity", "setting": "[8]", "value": 100, "unit": "%"},
      {"measurement": "IC50", "setting": "[9]; [14]", "value": 2250, "unit": "nM"},
      {"measurement": "IC50", "setting": "[9]; [15]", "value": 2250, "unit": "nM"}
    ]},
    {"smiles": "O=[N+]([O-])c1ccc(NN=C2c3ccc(O)cc3OCC2c2ccc(O)cc2)cc1", "note": "(stereo not shown) [Cpd. 2]", "values": [
      {"measurement": "IC50", "setting": "[1]", "value": 26.1, "unit": "µM"},
      {"measurement": "overall cell killing activity against all cell lines tested", "setting": "[2]", "value": "lowest activity"},
      {"measurement": "IC50", "setting": "[3]; [10]", "value": 50.9, "unit": "µM"},
      {"measurement": "IC50", "setting": "[4]; [11]", "value": 32.7, "unit": "µM"},
      {"measurement": "IC50", "setting": "[5]; [12]", "value": 46, "unit": "µM"},
      {"measurement": "inhibition at 10 µM", "setting": "[6]", "value": 27, "unit": "%"},
      {"measurement": "IC50", "setting": "[7]", "value": 44.8, "unit": "µM"},
      {"measurement": "inhibition of COX activity", "setting": "[8]", "value": 77, "unit": "%"},
      {"measurement": "IC50", "setting": "[9]; [14]", "value": "< 35", "unit": "nM"},
      {"measurement": "IC50", "setting": "[9]; read-out: IC50 inhibition of testosterone-induced proliferation (nM)", "value": "< 37", "unit": "nM"},
      {"measurement": "fold better than Cpd. 1 at inhibiting testosterone-induced proliferation", "setting": "[9]", "value": "~60", "unit": "fold"}
    ]},
    {"smiles": "Cc1ccc(NN=C2c3ccc(O)cc3OCC2c2ccc(O)cc2)cc1", "note": "(stereo not shown) [Cpd. 3]", "values": [
      {"measurement": "IC50", "setting": "[1]", "value": 22.4, "unit": "µM"},
      {"measurement": "overall cell killing activity against all cell lines tested", "setting": "[2]", "value": "best overall cell killing activity"},
      {"measurement": "IC50", "setting": "[3]; [10]", "value": 16.2, "unit": "µM"},
      {"measurement": "IC50", "setting": "[3]; read-out: IC50 against LNCaP", "value": 16.3, "unit": "µM"},
      {"measurement": "IC50", "setting": "[4]; NCI-H460, read-out: activity against NCI-H460", "value": 13.3, "unit": "µM"},
      {"measurement": "IC50", "setting": "[5]; [12]", "value": 19.1, "unit": "µM"},
      {"measurement": "IC50", "setting": "[5]; [13]", "value": 19.2, "unit": "µM"},
      {"measurement": "inhibition at 10 µM", "setting": "[6]", "value": 60, "unit": "%"},
      {"measurement": "IC50", "setting": "[7]", "value": 27.9, "unit": "µM"},
      {"measurement": "inhibition of COX activity", "setting": "[8]", "value": 100, "unit": "%"},
      {"measurement": "IC50", "setting": "[9]; [14]", "value": 680, "unit": "nM"},
      {"measurement": "IC50", "setting": "[9]; [15]", "value": 680, "unit": "nM"},
      {"measurement": "fold better than Cpd. 1 at inhibiting testosterone-induced proliferation", "setting": "[9]", "value": 3, "unit": "fold"}
    ]},
    {"smiles": "CC(C)(C)NC(=O)[C@H]1CC[C@H]2[C@@H]3CC[C@H]4NC(=O)C=C[C@]4(C)[C@H]3CC[C@]12C", "note": "[finasteride, reference compound]", "values": [
      {"measurement": "blocking of testosterone-induced proliferation", "setting": "[9]; 1 μM, inhibitor control", "value": "potently blocked"}
    ]}
  ]
}
